System: CD8^+ T cells
Test: Flow cytometry immune profiling of tumor and spleen, E0771 tumor model
Format: in vivo, C57BL/6 mice
Conditions: αPD-1 with or without treatment
Description: FIGS. 7A-C are graphs showing the results of immune cell profiling by flow cytometry in the murine MCA-205 (FIGS. 7A-B) or E0771 (FIG. 7C) tumor model treated with anti-PD-1 and/or CC. The tumors and the spleens were harvested 9 days or 19 days after the first injection of anti-PD-1 mAb into mice bearing MCA-205 or E0771 tumors, respectively. Excised tumors were cut into small pieces and digested in RPMI medium containing Liberase 25 μg/mL (Roche) and DNase1 at 150 Ul/mL (Roche) for 30 minutes at 37° C. and then crushed and filtered twice using 100 and 70 μm cell strainers (Becton & Dickinson). Spleens were crushed in RPMI medium and subsequently filtered through a 100 μm cell strainer. Two million tumor cells or splenocytes were pre-incubated with purified anti-mouse CD16/CD32 (clone 93; eBioscience) for 30 minutes at 4° C., before membrane staining (CD45, CD3, CD4, CD8, PD1, PDL1, ICOS, CXCR3, CCR9, CD45RB, CD62L, CD44). For intracellular staining, the Foxp3 staining kit (eBioscience) was used. Dead cells were excluded using the Live/Dead Fixable aqua blue dead cell stain kit (Life Technologies). […] FIG. 7C is a graph showing the activation of intratumoral CD8^+ T cells (as assessed by MFI of ICOS^+CD8^+ T cells by flow cytometry) in TILs in the E0771 tumor model post-treatment with CC +/-αPD-1. […]

O=C1OC[C@H]2OC(=O)c3cc(O)c(O)c(O)c3-c3c(O)c(O)c(O)c4c3C(=O)O[C@H]([C@H]3OC(=O)c5c-4c(O)c(O)c(O)c5[C@@H]3O)[C@@H]2OC(=O)c2cc(O)c(O)c(O)c2-c2c1cc(O)c(O)c2O [castalagin, Castalagin]
frequency of memory CD8^+ T cells (CD44^HighCD62L^−CD8^+) (splenocytes): increase in frequency of memory CD8^+ T cells | frequency of memory CD8^+ T cells (CD44^HighCD62L^−CD8^+) (tumor microenvironment): increase in frequency of memory CD8^+ T cells
